{
  "source": "patent US6432655B1",
  "about": "“Method of obtaining compositions” (Synaptic Pharmaceutical Corporation, priority 1992, dated 2002)",
  "key": {"human 5-HT4B receptor [1]": {"biological_target": "T1, human 5-HT4B receptor (Homo sapiens, UniProt P34969)", "T1 construct": "The entire coding region of the human 5-HT4B receptor (1338 bp); expressed in transfected cells", "T1 sequence (P34969 1-445 isoform P34969-2)": "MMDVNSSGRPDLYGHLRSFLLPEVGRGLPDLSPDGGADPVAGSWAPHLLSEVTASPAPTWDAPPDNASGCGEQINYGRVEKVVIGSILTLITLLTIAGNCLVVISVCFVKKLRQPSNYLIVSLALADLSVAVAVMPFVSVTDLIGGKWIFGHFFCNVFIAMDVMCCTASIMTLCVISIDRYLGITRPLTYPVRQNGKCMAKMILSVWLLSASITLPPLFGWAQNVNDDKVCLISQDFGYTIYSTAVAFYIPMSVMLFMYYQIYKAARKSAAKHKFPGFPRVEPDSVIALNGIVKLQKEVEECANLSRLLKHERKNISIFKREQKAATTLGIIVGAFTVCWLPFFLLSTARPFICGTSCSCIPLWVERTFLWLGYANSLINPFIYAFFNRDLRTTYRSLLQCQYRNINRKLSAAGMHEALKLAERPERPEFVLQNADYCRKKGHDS", "test": "cAMP formation in intact, transiently transfected Cos-7 cells", "type": "cell-based", "settings": "for stimulation of basal cAMP release: 1 μM"}, "human 5-HT4B receptor [2]": {"biological_target": "T1, human 5-HT4B receptor", "test": "cell-based", "type": "cell-based", "settings": "for Emax: L-M(TK-), read-out: Emax* (% 5-HT RESPONSE)"}, "[3]": {"biological_target": "T2, human 5-HT4B receptor (clone hp78a) (Homo sapiens, UniProt P34969)", "T2 construct": "The entire coding region of the human 5-HT4B receptor (1338 bp); expressed in transfected cells; host or cells: Cos-7 (monkey kidney), transient, plasmid hp78a/EXJ (pcEXV-5HT4B)", "T2 sequence (P34969 1-445 isoform P34969-2)": "as above", "test": "[3H]5-HT radioligand binding to membranes of Cos-7 cells transiently expressing clone hp78a"}, "5-HT4B receptor": {"biological_target": "T3, 5-HT4B receptor (Rattus norvegicus, UniProt P32305)", "T3 construct": "from tissue; host or cells: rat brain cryostat sections (20 µm)", "T3 sequence (P32305 whole entry)": "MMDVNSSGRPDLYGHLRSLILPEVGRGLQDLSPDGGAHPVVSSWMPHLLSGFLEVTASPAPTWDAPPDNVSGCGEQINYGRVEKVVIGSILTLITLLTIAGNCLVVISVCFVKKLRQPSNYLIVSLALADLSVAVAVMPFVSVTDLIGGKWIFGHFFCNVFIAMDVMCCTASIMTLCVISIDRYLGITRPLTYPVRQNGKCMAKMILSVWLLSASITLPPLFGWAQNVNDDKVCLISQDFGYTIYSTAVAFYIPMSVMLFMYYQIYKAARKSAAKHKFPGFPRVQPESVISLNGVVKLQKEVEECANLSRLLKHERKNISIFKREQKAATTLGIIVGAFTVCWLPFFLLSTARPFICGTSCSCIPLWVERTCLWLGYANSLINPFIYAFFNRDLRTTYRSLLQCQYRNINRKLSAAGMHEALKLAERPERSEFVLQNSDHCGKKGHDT", "test": "[3H]5-CT receptor autoradiography on rat brain sections", "type": "binding"}, "[4]": {"test_system": "5-HT receptor present in glial membranes", "settings": "Fillion et al., 1980, property shared with hp78a, cited from earlier work"}, "human 5-HT1E receptor": {"biological_target": "human 5-HT1E receptor (Homo sapiens, UniProt P28566)", "sequence (P28566 whole entry)": "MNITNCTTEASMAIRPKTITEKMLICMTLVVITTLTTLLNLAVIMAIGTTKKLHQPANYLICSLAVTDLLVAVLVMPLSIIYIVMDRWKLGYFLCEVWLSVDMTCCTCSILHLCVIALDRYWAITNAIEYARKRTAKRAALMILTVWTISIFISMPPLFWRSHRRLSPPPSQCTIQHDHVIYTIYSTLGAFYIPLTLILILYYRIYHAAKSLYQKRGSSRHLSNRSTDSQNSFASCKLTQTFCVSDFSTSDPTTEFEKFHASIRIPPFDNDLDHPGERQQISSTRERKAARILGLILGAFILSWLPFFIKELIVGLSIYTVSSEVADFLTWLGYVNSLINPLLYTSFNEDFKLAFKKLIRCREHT", "settings": "cited from earlier work"}, "human 5-HT1F receptor": {"biological_target": "T4, human 5-HT1F receptor (Homo sapiens, UniProt P30939)", "T4 sequence (P30939 1-366)": "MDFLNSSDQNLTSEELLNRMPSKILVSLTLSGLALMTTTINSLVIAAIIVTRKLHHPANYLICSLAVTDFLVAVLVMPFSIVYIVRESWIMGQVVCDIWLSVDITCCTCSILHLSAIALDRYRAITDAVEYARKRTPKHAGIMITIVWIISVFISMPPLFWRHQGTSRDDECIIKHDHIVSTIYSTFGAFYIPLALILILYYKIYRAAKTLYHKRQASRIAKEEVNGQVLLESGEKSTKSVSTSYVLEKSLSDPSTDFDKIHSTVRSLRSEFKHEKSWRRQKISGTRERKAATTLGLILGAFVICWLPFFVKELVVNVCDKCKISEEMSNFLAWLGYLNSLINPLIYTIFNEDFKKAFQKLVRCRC", "settings": "cited from earlier work"}, "[5]": {"test_system": "untransfected or mock-transfected Cos-7 cells", "test": "cAMP in untransfected or mock-transfected Cos-7 cells", "type": "cell-based, monkey", "settings": "1 μM", "protocol": "Both the 5-HT-mediated inhibition and stimulation of cAMP levels were evaluated in these three intact cell preparations. Intracellular cAMP formation was measured by radioimmunoassay (cAMP Radioimmunoassay kit, Advanced Magnetics, Cambridge, Mass.) using methodology outlined by Zgombick et al. (1991). Radioactivity was quantitatied using a Packard COBRA Auto Gamma Counter (equipped with data reduction software)."}, "[6]": {"settings": "normalized to the 5-HT maximal response"}, "[7]": {"settings": "read-out: Ki (apparent dissociation constants for clone hp78a)"}, "[8]": {"settings": "Ki (apparent dissociation constants for clone hp78a)"}, "[9]": {"settings": "dissociation constant of antagonist, KB = [B]/(A′/A) − 1], read-out: KB"}},
  "note": "Read-outs that look alike come from different tables or passages of the source.",
  "data": [
    {"compound": "CCCN(CCC)C1CCc2cccc(O)c2C1", "note": "(centres unmarked)", "values": [
      {"measurement": "stimulation of basal cAMP release", "setting": "human 5-HT4B receptor [1]", "value": "about 2 fold"},
      {"measurement": "INTRINSIC ACTIVITY", "setting": "human 5-HT4B receptor [2]", "value": "PARTIAL AGONIST"},
      {"measurement": "functional character", "setting": "human 5-HT4B receptor [2]", "value": "weak agonist"},
      {"measurement": "Emax* (% 5-HT RESPONSE)", "setting": "human 5-HT4B receptor [2]; [6]", "value": "51 ± 14", "unit": "% 5-HT RESPONSE"}
    ]},
    {"compound": "CC(C)NCC(O)COc1cccc2[nH]ccc12", "note": "(racemic) [Pindolol]", "values": [
      {"measurement": "Ki", "setting": "[3]; [7]", "value": "> 5000", "unit": "nM"}
    ]},
    {"compound": "CC(N)Cc1c[nH]c2ccc(O)cc12", "note": "(racemic) [α-Methyl-5-hydroxy-tryptamine]", "values": [
      {"measurement": "Ki", "setting": "[3]; [8]", "value": 509, "unit": "nM"}
    ]},
    {"compound": "CC(C)NCC(O)COc1cccc2[nH]ccc12", "note": "(single isomer, unassigned; (-)) [(−)pindolol]", "values": [
      {"measurement": "effect on [3H]5-CT binding", "setting": "5-HT4B receptor; masks: 100 nM PAPP and 160 nM (−)pindolol added together", "value": "markedly reduced"}
    ]},
    {"compound": "c1ccc2c(N3CCNCC3)cccc2c1", "note": "[1-Naphthylpiperazine]", "values": [
      {"measurement": "Ki", "setting": "[3]; [7]", "value": "83 ± 19", "unit": "nM"}
    ]},
    {"compound": "CCN(CC)C(=O)[C@@H]1C=C2c3cccc4[nH]c(Br)c(c34)C[C@H]2N(C)C1", "note": "[2-Bromo-LSD]", "values": [
      {"measurement": "Ki", "setting": "[3]; [7]", "value": "30 ± 10", "unit": "nM"},
      {"measurement": "antagonism", "setting": "[4]", "value": "Potent antagonism"},
      {"measurement": "% INHIBITION OF 5-HT RESPONSE", "setting": "human 5-HT4B receptor [1]", "value": "95 ± 4.5", "unit": "%"},
      {"measurement": "FOLD cAMP STIMULATION", "setting": "human 5-HT4B receptor [1]; 1 μM drug, relative to basal levels", "value": 0},
      {"measurement": "INTRINSIC ACTIVITY", "setting": "human 5-HT4B receptor [2]", "value": "ANTAGONIST"},
      {"measurement": "Kb", "setting": "human 5-HT4B receptor [2]; [9]", "value": "12 ± 3", "unit": "nM"},
      {"measurement": "Emax* (% 5-HT RESPONSE)", "setting": "human 5-HT4B receptor [2]; [6]", "value": 0, "unit": "% 5-HT RESPONSE"}
    ]},
    {"compound": "NCCc1c[nH]c2ccc(OCc3ccccc3)cc12", "note": "[5-Benzyloxytryptamine]", "values": [
      {"measurement": "Ki", "setting": "[3]; [8]", "value": 729, "unit": "nM"}
    ]},
    {"compound": "NCCc1c[nH]c2ccc(C(N)=O)cc12", "note": "[5-CT, 5-Carboxamidotryptamine]", "values": [
      {"measurement": "Ki", "setting": "human 5-HT1E receptor", "value": "> 700", "unit": "nM"},
      {"measurement": "Ki", "setting": "human 5-HT1F receptor", "value": "> 700", "unit": "nM"},
      {"measurement": "agonist activity", "setting": "human 5-HT4B receptor [1]", "value": "potent agonists"},
      {"measurement": "INTRINSIC ACTIVITY", "setting": "human 5-HT4B receptor [2]", "value": "AGONIST (key: AGONIST indicates that the maximal response to the drug was at least 80% of the maximum response obtained with 5-HT)"},
      {"measurement": "functional character", "setting": "human 5-HT4B receptor [2]", "value": "potent agonists"},
      {"measurement": "Emax", "setting": "human 5-HT4B receptor [2]", "value": "110 ± 19", "unit": "%"}
    ]},
    {"compound": "NCCc1c[nH]c2ccc(O)cc12", "note": "[5-HT, 5-Hydroxytryptamine]", "values": [
      {"measurement": "effect on basal or FSK-stimulated adenylate cyclase activity", "setting": "[5]", "value": "no effect"},
      {"measurement": "EC50", "setting": "[4]; read-out: EC50 value for 5-HT stimulation of cAMP", "value": "500 to 1000", "unit": "nM"},
      {"measurement": "increase in cAMP release over basal levels", "setting": "human 5-HT4B receptor [1]", "value": 20, "unit": "fold"},
      {"measurement": "stimulation of basal cAMP release", "setting": "human 5-HT4B receptor [1]", "value": 7, "unit": "fold"},
      {"measurement": "stimulation of intracellular cAMP accumulation", "setting": "human 5-HT4B receptor [1]; coincubation of 1 μM FSK and 1 μM 5-HT", "value": 75, "unit": "fold"},
      {"measurement": "INTRINSIC ACTIVITY", "setting": "human 5-HT4B receptor [2]", "value": "AGONIST (AGONIST indicates that the maximal response to the drug was at least 80% of the maximum response obtained with 5-HT)"}
    ]},
    {"compound": "COc1ccc2[nH]cc(CCN)c2c1", "note": "[5-MeOT, 5-Methoxytryptamine]", "values": [
      {"measurement": "agonist activity", "setting": "human 5-HT4B receptor [1]", "value": "potent agonists"},
      {"measurement": "INTRINSIC ACTIVITY", "setting": "human 5-HT4B receptor [2]", "value": "AGONIST (key: AGONIST indicates that the maximal response to the drug was at least 80% of the maximum response obtained with 5-HT)"},
      {"measurement": "functional character", "setting": "human 5-HT4B receptor [2]", "value": "potent agonists"},
      {"measurement": "Emax", "setting": "human 5-HT4B receptor [2]", "value": "100 ± 5", "unit": "%"}
    ]},
    {"compound": "CC(C)C[C@H]1C(=O)N2CCC[C@H]2[C@]2(O)O[C@](NC(=O)[C@@H]3C=C4c5cccc6[nH]c(Br)c(c56)C[C@H]4N(C)C3)(C(C)C)C(=O)N12", "note": "[Bromocriptine]", "values": [
      {"measurement": "Kb", "setting": "human 5-HT4B receptor [2]", "value": "240 ± 10", "unit": "nM"},
      {"measurement": "Emax", "setting": "human 5-HT4B receptor [2]", "value": 0, "unit": "%"}
    ]},
    {"compound": "CN(C)CCc1c[nH]c2ccc(O)cc12", "note": "[Bufotenin]", "values": [
      {"measurement": "Ki", "setting": "[3]; [8]", "value": 26, "unit": "nM"}
    ]},
    {"compound": "COc1cc(CC(C)N)c(OC)cc1I", "note": "(centres unmarked) [DOI]", "values": [
      {"measurement": "PERCENT INHIBITION (displacement of specific [3H]5-HT binding)", "setting": "[3]", "value": 20}
    ]},
    {"compound": "CN1C[C@H](C(=O)N[C@]2(C)O[C@@]3(O)[C@@H]4CCCN4C(=O)[C@H](Cc4ccccc4)N3C2=O)C[C@@H]2c3cccc4[nH]cc(c34)C[C@H]21", "note": "[Dihydroergotamine]", "values": [
      {"measurement": "Ki", "setting": "[3]; [8]", "value": "6.9 ± 0.9", "unit": "nM"},
      {"measurement": "INTRINSIC ACTIVITY", "setting": "human 5-HT4B receptor [2]", "value": "ANTAGONIST"},
      {"measurement": "Emax", "setting": "human 5-HT4B receptor [2]", "value": 0, "unit": "%"},
      {"measurement": "Kb", "setting": "human 5-HT4B receptor [2]; [9]", "value": "20 ± 4", "unit": "nM"}
    ]},
    {"compound": "CCCN(CCC)CCc1c[nH]c2ccc(C(N)=O)cc12", "note": "[Dipropyl-5-carboxamidotryptamine]", "values": [
      {"measurement": "Ki", "setting": "[3]; [7]", "value": "37 ± 21", "unit": "nM"},
      {"measurement": "EC50", "setting": "human 5-HT4B receptor [2]", "value": 2400, "unit": "nM"},
      {"measurement": "Emax* (% 5-HT RESPONSE)", "setting": "human 5-HT4B receptor [2]", "value": "86 ± 12", "unit": "% 5-HT RESPONSE"},
      {"measurement": "INTRINSIC ACTIVITY", "setting": "human 5-HT4B receptor [2]", "value": "AGONIST (key: AGONIST indicates that the maximal response to the drug was at least 80% of the maximum response obtained with 5-HT)"}
    ]},
    {"compound": "NCCc1ccc(O)c(O)c1", "note": "[Dopamine]", "values": [
      {"measurement": "PERCENT INHIBITION (displacement of specific [3H]5-HT binding)", "setting": "[3]; 30 nM competitor, 5 nM [3H]5-HT, 30 min at 37° C.", "value": 0}
    ]},
    {"compound": "CN1C[C@H](C(=O)N[C@]2(C)O[C@@]3(O)[C@@H]4CCCN4C(=O)[C@H](Cc4ccccc4)N3C2=O)C=C2c3cccc4[nH]cc(c34)C[C@H]21", "note": "[Ergotamine]", "values": [
      {"measurement": "Ki", "setting": "[3]; [8]", "value": 15, "unit": "nM"},
      {"measurement": "Ki", "setting": "[3]; Ki for clone hp78a", "value": "< 20", "unit": "nM"},
      {"measurement": "effect on specific [3H]5-CT binding", "setting": "5-HT4B receptor; 1 μM, 0.5 nM [3H]5-CT", "value": "completely eliminated"}
    ]},
    {"compound": "Nc1nc2c(ncn2[C@@H]2O[C@H](COP(=O)(O)OP(=O)(O)NP(=O)(O)O)[C@@H](O)[C@H]2O)c(=O)[nH]1", "note": "[Gpp(NH)p, 5′-guanylylimidodiphosphate]", "values": [
      {"measurement": "reduction of high affinity [3H]5-HT binding", "setting": "[3]", "value": 75, "unit": "%"}
    ]},
    {"compound": "NCCc1c[nH]cn1", "note": "[Histamine]", "values": [
      {"measurement": "PERCENT INHIBITION (displacement of specific [3H]5-HT binding)", "setting": "[3]; 100 nM competitor, 5 nM [3H]5-HT, 30 min at 37° C.", "value": 10}
    ]}
  ]
}
